Measurements published in the NIST ThermoML archive (doi:10.1016/j.fluid.2014.04.004).
± gives the expanded uncertainty stated by the source.

Experiments:
[1] = Liquid, Closed cell (Static) method
[2] = excess molar enthalpy (molar enthalpy of mixing); xn = mol fraction of the nth substance listed; conditions: 303.15 K, 101 kPa, Liquid, Calvet calorimetry

C1CCCCC1 [cyclohexane]
vapor or sublimation pressure ([1]; 283.32 K): 6.389 ± 0.023 kPa | vapor or sublimation pressure ([1]; 288.28 K): 8.195 ± 0.026 kPa | vapor or sublimation pressure ([1]; 293.27 K): 10.42 ± 0.031 kPa | vapor or sublimation pressure ([1]; 298.25 K): 13.17 ± 0.037 kPa | vapor or sublimation pressure ([1]; 303.27 K): 16.45 ± 0.046 kPa | vapor or sublimation pressure ([1]; 313.24 K): 24.97 ± 0.062 kPa | vapor or sublimation pressure ([1]; 323.21 K): 36.72 ± 0.086 kPa | vapor or sublimation pressure ([1]; 333.21 K): 52.48 ± 0.12 kPa | vapor or sublimation pressure ([1]; 343.18 K): 72.98 ± 0.15 kPa | vapor or sublimation pressure ([1]; 353.14 K): 99.11 ± 0.2 kPa

Cc1cncc(C)c1 [3,5-dimethylpyridine] + C1CCCCC1
excess molar enthalpy ([2]; x1 = 0.085): 0.112 ± 0.00263 kcal/mol | excess molar enthalpy ([2]; x1 = 0.221): 0.227 ± 0.00311 kcal/mol | excess molar enthalpy ([2]; x1 = 0.312): 0.276 ± 0.00311 kcal/mol | excess molar enthalpy ([2]; x1 = 0.386): 0.295 ± 0.00335 kcal/mol | excess molar enthalpy ([2]; x1 = 0.515): 0.306 ± 0.00335 kcal/mol | excess molar enthalpy ([2]; x1 = 0.635): 0.279 ± 0.00311 kcal/mol | excess molar enthalpy ([2]; x1 = 0.735): 0.217 ± 0.00287 kcal/mol | excess molar enthalpy ([2]; x1 = 0.83): 0.149 ± 0.00263 kcal/mol | excess molar enthalpy ([2]; x1 = 0.899): 0.0951 ± 0.00263 kcal/mol

Cc1cccc(C)n1 [2,6-dimethylpyridine]
vapor or sublimation pressure ([1]; 283.37 K): 0.3 ± 0.004 kPa | vapor or sublimation pressure ([1]; 288.33 K): 0.42 ± 0.004 kPa | vapor or sublimation pressure ([1]; 293.3 K): 0.581 ± 0.006 kPa | vapor or sublimation pressure ([1]; 298.3 K): 0.794 ± 0.007 kPa | vapor or sublimation pressure ([1]; 303.27 K): 1.07 ± 0.01 kPa | vapor or sublimation pressure ([1]; 313.27 K): 1.879 ± 0.012 kPa | vapor or sublimation pressure ([1]; 323.24 K): 3.163 ± 0.015 kPa | vapor or sublimation pressure ([1]; 333.21 K): 5.14 ± 0.019 kPa | vapor or sublimation pressure ([1]; 343.2 K): 8.101 ± 0.026 kPa | vapor or sublimation pressure ([1]; 353.14 K): 12.23 ± 0.034 kPa

Cc1cccc(C)n1 [2,6-dimethylpyridine] + C1CCCCC1
excess molar enthalpy ([2]; x1 = 0.09): 0.123 ± 0.00263 kcal/mol | excess molar enthalpy ([2]; x1 = 0.22): 0.239 ± 0.00311 kcal/mol | excess molar enthalpy ([2]; x1 = 0.275): 0.269 ± 0.00311 kcal/mol | excess molar enthalpy ([2]; x1 = 0.308): 0.281 ± 0.00311 kcal/mol | excess molar enthalpy ([2]; x1 = 0.434): 0.299 ± 0.00335 kcal/mol | excess molar enthalpy ([2]; x1 = 0.529): 0.283 ± 0.00335 kcal/mol | excess molar enthalpy ([2]; x1 = 0.669): 0.226 ± 0.00287 kcal/mol | excess molar enthalpy ([2]; x1 = 0.806): 0.142 ± 0.00263 kcal/mol | excess molar enthalpy ([2]; x1 = 0.8998): 0.0748 ± 0.00263 kcal/mol

Cc1cncc(C)c1 [3,5-dimethylpyridine]
vapor or sublimation pressure ([1]; 273.5 K): 0.04 ± 0.001 kPa | vapor or sublimation pressure ([1]; 283.45 K): 0.085 ± 0.002 kPa | vapor or sublimation pressure ([1]; 293.47 K): 0.172 ± 0.002 kPa | vapor or sublimation pressure ([1]; 303.54 K): 0.331 ± 0.004 kPa | vapor or sublimation pressure ([1]; 313.56 K): 0.612 ± 0.006 kPa | vapor or sublimation pressure ([1]; 323.59 K): 1.078 ± 0.01 kPa | vapor or sublimation pressure ([1]; 333.66 K): 1.824 ± 0.011 kPa | vapor or sublimation pressure ([1]; 343.62 K): 2.973 ± 0.014 kPa | vapor or sublimation pressure ([1]; 353.63 K): 4.688 ± 0.018 kPa
